Data published in ChEMBL document CHEMBL5370598, “[3H]UR-JG102-A Radiolabeled Cyclic Peptide with High Affinity and Excellent Selectivity for the Neuropeptide Y Y4 Receptor” (J Med Chem, 2023).

What was measured:
[1] = target: T1, Neuropeptide Y receptor type 4 (Homo sapiens, UniProt P50391); experiment: Binding affinity to human Y4R under sodium free condition
[2] = target: T1, Neuropeptide Y receptor type 4; experiment: Binding affinity to human Y4R under 150 mM sodium condition
[3] = target: T1, Neuropeptide Y receptor type 4; experiment: (§1) Displacement of [3H]-(9S,12S,15S,19R,E)-4-amino-N-((S)-1-(((S)-1-(((S)-1-amino-3-(4-hydroxyphenyl)-1-oxopropan-2-yl)amino)-5-guanidino-1-oxopentan-2-yl)amino)-4-methyl-1-oxopentan-2-yl)-15-(3-guanidinopropyl)-12-(4-hydroxybenzyl)-2,11,14,17,20-pentaoxo-19-(4-(propanamido-2,3-t2)butanamido)-1,3,5,10,13,16,21-heptaazacyclopentacos-3-ene-9-carboxamide from human Y4R expressed in CHO cells coexpressing Gqi5-mtAEQ under hypotonic sodium free buffer condition; format: cell-based
[4] = target: T1, Neuropeptide Y receptor type 4; experiment: as §1, with “isotonic” for “hypotonic”, “containing” for “free”; format: cell-based; conditions: read-out: Ki

T1 sequence (P50391 whole entry): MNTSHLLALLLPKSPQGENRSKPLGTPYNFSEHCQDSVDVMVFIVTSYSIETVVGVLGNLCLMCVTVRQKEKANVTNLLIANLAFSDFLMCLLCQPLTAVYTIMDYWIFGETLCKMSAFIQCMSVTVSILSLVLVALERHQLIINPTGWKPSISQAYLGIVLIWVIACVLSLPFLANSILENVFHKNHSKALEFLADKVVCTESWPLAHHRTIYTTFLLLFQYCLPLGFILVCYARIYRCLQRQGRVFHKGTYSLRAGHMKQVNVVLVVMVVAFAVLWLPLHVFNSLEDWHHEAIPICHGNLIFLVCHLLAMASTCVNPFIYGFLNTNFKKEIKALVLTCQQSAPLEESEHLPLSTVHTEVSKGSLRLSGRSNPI

Work on [3H]CC([3H])C(=O)NCCCC[C@H](NC(=O)[C@H](CC(C)C)NC(=O)[C@@H]1CCCN1C(=O)[C@H](C)N)C(=O)N1CCC[C@H]1C(=O)N[C@H](C(=O)N[C@@H](Cc1ccc(O)cc1)C(=O)N1CCC[C@H]1C(=O)NCC(=O)N[C@@H](CC(=O)O)C(=O)N[C@@H](CC(N)=O)C(=O)N[C@@H](C)C(=O)N[C@H](C(=O)N1CCC[C@H]1C(=O)N[C@@H](CCC(=O)O)C(=O)N[C@@H](CCC(N)=O)C(=O)NC(CCCC)C(=O)N[C@@H](C)C(=O)N[C@@H](CCC(N)=O)C(=O)N[C@@H](Cc1ccc(O)cc1)C(=O)N[C@@H](C)C(=O)N[C@@H](C)C(=O)N[C@@H](CC(N)=O)C(=O)N[C@@H](CC(C)C)C(=O)N[C@@H](CCCNC(=N)N)C(=O)N[C@@H](CCCNC(=N)N)C(=O)N[C@@H](Cc1ccc(O)cc1)C(=O)N[C@H](C(=O)N[C@@H](CC(N)=O)C(=O)NC(CCCC)C(=O)N[C@@H](CC(C)C)C(=O)N[C@H](C(=O)N[C@@H](CCCNC(=N)N)C(=O)N1CCC[C@H]1C(=O)N[C@@H](CCCNC(=N)N)C(=O)N[C@@H](Cc1ccc(O)cc1)C(N)=O)[C@@H](C)O)[C@@H](C)CC)[C@@H](C)O)C(C)C (stereo partly specified) yielded a Kd [1] of 1.1 nM and a Kd [2] of 20.9 nM.

Compound [3H]CC([3H])C(=O)NCCCCNC(=O)/N=C(\N)NCCCC[C@H](NC(=O)[C@H](Cc1ccc(O)cc1)NC(=O)CCCCCCC(=O)N[C@@H](Cc1ccc(O)cc1)C(=O)N[C@@H](CCCNC(=N)N)C(=O)N[C@@H](CC(C)C)C(=O)N[C@@H](CCCNC(=N)N)C(=O)N[C@@H](Cc1ccc(O)cc1)C(N)=O)C(=O)N[C@@H](CC(C)C)C(=O)N[C@@H](CCCNC(=N)N)C(=O)N[C@@H](Cc1ccc(O)cc1)C(N)=O (stereo partly specified) has a Kd [1] of 0.67 nM, a Ki ([3]; read-out: Ki) of 0.41 nM and a Ki ([3]; read-out: pKi (converted)) of 0.209 nM. The Ki [4] was 6.7 nM.
